Data from patent publication US20030053966A1, “Insoluble organic UV screening agents of aryl vinylene ketone type, and cosmetic use thereof” (priority 2001, published 2003).

Key:
[1] = UV absorption of the compound in solution; format: physicochemical
[2] = solution in DMSO/CH2Cl2, at λmax

Question: Which results are given for `C[Si](C)(C)CCCOc1ccc(/C=C2\CC/C(=C\c3ccc(OCCC[Si](C)(C)C)cc3)C2=O)cc1` [Example 8, 2,5-bis[4-(3-trimethylsilanylpropyloxy)-benzylidene]cyclopentanone]?
Answer: λmax ([1]; solution in CHCl3): 391 nm; E1% ([1]; solution in CHCl3, at λmax): 940; εmax ([1]; solution in CHCl3, at λmax): 49 100; melting point: 205 to 207 °C

Question: With `CC12CCC(/C(=C\c3cccc(/C=C4/C(=O)C5(C)CCC4C5(C)C)c3)C1=O)C2(C)C` [Example 3, 1,3-phenylenebis(3-methylidenecamphor)] as the compound, how does the melting point read?
Answer: Its melting point is 152 °C.

Question: What does the source list for `Cc1c(C)c(C=C2C(=O)C3(C)CCC2C3(C)C)c(C)c(C)c1C=C1C(=O)C2(C)CCC1C2(C)C` [Example 6, (2,3,5,6-tetramethyl)-1,4-phenylenebis-(3-methylidenecamphor)]?
Answer: λmax ([1]; solution in CH2Cl3): 286 nm; E1% ([1]; solution, at λmax): 270; εmax ([1]; solution, at λmax): 12 200

Question: With `CCCCC(CC)CNS(=O)(=O)CC12CCC(C(=Cc3ccc(C=C4C(=O)C5(CS(=O)(=O)NCC(CC)CCCC)CCC4C5(C)C)cc3)C1=O)C2(C)C` (stereo not drawn) [Example 2, 1,4-phenylenebis(2-ethylhexyl 3,3′-methylidenecamphor-10,10′-sulphonamide)] as the compound, how does the λmax ([1]; solution in CH2Cl2) read?
Answer: Its λmax is 342 nm.

Question: What about the E1% ([1]; solution in CH2Cl2, at λmax) of the same compound?
Answer: The E1% was 522.

Question: What about the εmax ([1]; solution in CH2Cl2, at λmax) of the same compound?
Answer: The εmax was 41 000.

Question: Which melting point does the source give for `CC12CCC(/C(=C\c3ccc(/C=C4/C(=O)C5(C)CCC4C5(C)C)cc3)C1=O)C2(C)C` [Example 5, 1,4-phenylenebis(3-methylidenecamphor)] here?
Answer: The melting point was 234 °C.

Question: With `CCNS(=O)(=O)CC12CCC(C(=Cc3ccc(C=C4C(=O)C5(CS(=O)(=O)NCC)CCC4C5(C)C)cc3)C1=O)C2(C)C` [Example 1, 1,4-phenylenebis(ethyl 3,3′-methylidenecamphor-10,10′-sulphonamide)] as the compound, how does the λmax ([1]; solution in DMSO/CH2Cl2) read?
Answer: The λmax was 342 nm.

Question: And the E1% [1, 2]?
Answer: Its E1% is 654.

Question: What about the εmax [1, 2] of the same compound?
Answer: The εmax was 40350.
